Measured values: patent US20240269096A1, “Rapid Onset Therapeutic Ketosis Enabled by D-BetaHydroxyButyric Acid Systems, Compounds and Methods for Sepsis Protection and Enhanced Medical Recovery” (American Ketone Therapeutics LLC, priority 2022, published 2024)
Where “and” joins values, the source holds several entries; their conditions need not be identical. Equal values may be shown once. Values belong to the molecule of their own block, whether it stands above or below them.

What was measured:
[1] = test system: LPS-induced myocardial injury and cardiac dysfunction; settings: mouse model; study utilized the synthetic ketone ester; cited from earlier work
NLRP3 inflammasome = molecular target: T1, NLRP3 inflammasome (Homo sapiens, UniProt Q96P20); settings: independently of GPR109A binding or mitochondrial oxidation; cited from earlier work
T1 construct: host or cells: macrophages

[2] = compared with ketone salts; FIG. 5 literature data; cited from earlier work
[3] = Continuous Ketone Meter (CKM) monitoring of body ketone levels and deep sleep; assay type: in vivo; settings: 5 grams consumed 45 minutes prior to bedtime
Excerpt: FIG. 12 is a graphical illustration of continuous monitoring of body ketone levels resulting in improved deep sleep time due to enhanced D-BHB levels according to the claimed invention. It is noteworthy that consumption of even small amounts of free D-BetaHydroxyButyric Acid can give rise to therapeutic ketosis levels as measured by Continuous Ketone Meter (CKM). […] While free D-BetaHydroxyButyric Acid is not a sedative, even small amounts can greatly improve deep sleep quantity and quality. It is an intended and foreseeable embodiment application to increase deep sleep with free D-BetaHydroxyButyric Acid with the aim of guarding against sepsis, improving hospital recovery and enhanced resiliency.

[4] = Blood ketone levels by Abbott blood test strip after oral free D-BHB; assay type: in vivo, human
Excerpt: FIG. 9 is a graphical illustration of D-BHB exogenous ketone blood levels. The above Abbot blood ketone meter evidenced by Abbott blood test strip depicts the rapid rise in blood ketone levels from 0.1 mmol/L (absence of ketosis) to 2.7 mmol/L (ketosis) after oral bolus administration of 15 grams of bioidentical free D-BetaHydroxyButyric Acid. The ketone levels depicted are attained in the absence of a salt as well as without ester bonds. It is the free acid D-BHB exogenously administered which is bio-identical to the endogenous D-BHB free acid generated by the human body. The bioidentical ketone body D-BHB is first and foremost an energy source, which is directly and preferentially metabolized by the brain. D-BHB is also active as a signaling mechanism and neuro-inflammation reduction agent, resulting in broad and beneficial brain bioenergy related benefits.
FIG. 10 is a graphical illustration of D-BHB exogenous ketone blood levels. FIG. 10 details rapid ketosis within 45 minutes confirmed by Abbott blood test strip after 10 g D-BHB with palatability agent administered by oral drink. Blood ketone levels document rise from 0.2 mmol/L to 1.8 mmol/L and 0.6 mmol/L to 1.9 mmol/L in a variety of test subjects. FIG. 10 reinforces the fact that supplementation by utilizing free D only BetaHydroxyButyric Acid without ketone salt or ketone ester is a reliable, reproduceable method and system for rapid ketone level increase for stroke recovery and maintenance. While amounts of free D only BetaHydroxyButyric Acid taken for stroke effects may vary, it is an anticipated preferred embodiment that levels between 5 and 30 grams of D only BetaHydroxyButyric Acid are taken as needed for optimum recovery. Alternate embodiments may include lower or higher amounts, however, experimental evidence has confirmed optimal administration in this range for a wide variety of other applications.

[5] = Continuous glucose monitoring (Abbot Libre CGM) with carbohydrate challenge; assay type: in vivo; settings: 10 g administered 45 minutes before 50 g carbohydrate ingestion; versus unsupplemented ingestion
Excerpt: FIG. 11 is a graphical illustration of continuous monitoring of body glucose levels. FIG. 11 depicts continuous glucose monitoring levels with carbohydrate challenge documented by Abbot Libre Continuous Glucose Monitoring (CGM) device. In this illustrative embodiment, glucose levels from a 50 g carbohydrate ingestion are depicted unaided by free D-BetaHydroxyButyric Acid on the left and repeated the following day with two 50 g carbohydrate ingestions accompanied by 10 g free D-BetaHydroxyButyric Acid administered 45 minutes before the carbohydrate insult. […] As free D-BetaHydroxyButyric Acid can lower glucose while rapidly increasing ketone levels, it is believed that obtaining high ketones while lowering glucose will yield additional stroke recovery benefits for high glucose sensitive individuals suffering from sepsis and may be considered in lieu of insulin administration.

T1 sequence (Q96P20 whole entry): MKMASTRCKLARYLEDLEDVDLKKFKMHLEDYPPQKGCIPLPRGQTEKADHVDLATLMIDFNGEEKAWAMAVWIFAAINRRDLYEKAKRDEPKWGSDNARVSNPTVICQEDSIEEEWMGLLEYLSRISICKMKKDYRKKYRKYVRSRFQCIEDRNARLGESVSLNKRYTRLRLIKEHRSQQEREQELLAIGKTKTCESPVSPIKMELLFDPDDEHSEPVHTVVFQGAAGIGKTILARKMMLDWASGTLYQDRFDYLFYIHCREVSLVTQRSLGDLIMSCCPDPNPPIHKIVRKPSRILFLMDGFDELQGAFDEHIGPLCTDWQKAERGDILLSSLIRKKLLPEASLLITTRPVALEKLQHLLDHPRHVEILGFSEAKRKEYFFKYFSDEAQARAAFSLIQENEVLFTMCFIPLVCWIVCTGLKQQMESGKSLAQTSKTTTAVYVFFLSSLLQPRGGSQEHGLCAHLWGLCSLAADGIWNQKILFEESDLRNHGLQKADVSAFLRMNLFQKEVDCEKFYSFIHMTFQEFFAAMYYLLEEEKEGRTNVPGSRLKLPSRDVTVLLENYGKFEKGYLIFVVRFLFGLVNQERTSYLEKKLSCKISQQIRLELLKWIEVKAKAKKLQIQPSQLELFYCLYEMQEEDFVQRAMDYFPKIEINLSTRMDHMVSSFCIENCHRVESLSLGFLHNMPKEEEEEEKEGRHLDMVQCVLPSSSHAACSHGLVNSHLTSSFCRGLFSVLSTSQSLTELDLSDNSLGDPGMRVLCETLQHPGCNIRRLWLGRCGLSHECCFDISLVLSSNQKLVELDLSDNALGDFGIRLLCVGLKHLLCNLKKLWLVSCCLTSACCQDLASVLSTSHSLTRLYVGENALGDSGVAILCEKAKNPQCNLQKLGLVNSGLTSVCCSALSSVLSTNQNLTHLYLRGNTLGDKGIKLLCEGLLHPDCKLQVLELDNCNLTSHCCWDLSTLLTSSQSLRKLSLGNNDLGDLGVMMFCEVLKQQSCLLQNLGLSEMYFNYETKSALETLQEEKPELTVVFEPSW

SMILES: CC(O)CC(=O)O (stereo not drawn) [β-OHB, β-Hydroxybutyrate]
effect on LPS-induced myocardial injury and cardiac dysfunction [1]: prevent LPS-induced myocardial injury and cardiac dysfunction
effect on NLRP3 inflammasome in macrophages (NLRP3 inflammasome): inhibits the NLRP3 inflammasome

SMILES: C[C@@H](O)CCOC(=O)C[C@@H](C)O [ketone ester, (R)-3-hydroxybutyl (R)-3-hydroxybutyrate]
ketone level response [2]: higher ketone level response

increase in ketone level (CKM) [3]: 1.5 mmol/L
time to ketosis ([4]; 10 g with palatability agent by oral drink): ≤ 45 min
blood ketone levels after administration ([4]; 10 g with palatability agent by oral drink, within 45 minutes, rise from 0.2 and 0.6 mmol/L respectively, different test subjects): 1.8 mmol/L and 1.9 mmol/L
blood ketone levels after administration ([4]; oral bolus of 15 grams, rise from 0.1 mmol/L (absence of ketosis)): 2.7 mmol/L
SMILES: C[C@@H](O)CC(=O)O [D-BHB, D-β-HydroxyButyric Acid]
quantity of deep sleep [3]: enhance the quantity of deep sleep obtained
glucose spike after carbohydrate ingestion [5]: the rapid glucose spike depicted in the unsupplemented ingestion is not found
